Among the test systems are SN12C; SK-MEL-28; A498; DMS-114; LOX IMVI; OVCAR-8; SNB-19; ACHN; SR; NCI-H226; M19-MEL; M14; SF-539; Malme-3M; SNB-75; MOLT-4; OVCAR-4; CAKI-1.
Assay in all cases: inhibition of tumour cell growth, NCI panel, 48 h

Structures are written as SMILES.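 A five-concentration, 48-hour dose response in 96-well plates underlies each endpoint, interpolated linearly between surrounding concentrations. GI50 = concentration required for 50% inhibition of growth.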 The source made the active and inactive calls. No stated cut-off is given here; in the data, active = GI50 up to about 1.1 µM and inactive = higher. Bounds are passed on as bounds.

Regarding `CCOC(=O)COc1ccc(OCC(=O)OCC)c2c1C(=O)CCCC2=O`, the GI50 was > 100 µM (inactive) with SN12C; > 100 µM (inactive) in the test with SK-MEL-28; 0.281 µM (active) with A498; > 100 µM (inactive) in the test on DMS-114; > 100 µM (inactive) with LOX IMVI; > 100 µM (inactive) with OVCAR-8. In addition, the GI50 in the test with SNB-19, with ACHN, in the test on SR, in the test with NCI-H226, with M19-MEL and in the test on M14 was > 100 µM (inactive) each time. Besides, the GI50 in the test on SF-539, with Malme-3M, with SNB-75 and in the test on MOLT-4 was > 100 µM (inactive) in each case.

For the compound `Brc1ccc(C[P+]2(c3ccccc3)CCCCC2)cc1.[O-][Cl+3]([O-])([O-])[O-]`, the GI50 with SN12C is > 100 µM (inactive); in the test on SK-MEL-28, 63.7 µM (inactive); in the test on A498 it was > 100 µM (inactive); with DMS-114, 39.5 µM (inactive); with LOX IMVI, 63.2 µM (inactive); with OVCAR-8 it was 95.1 µM (inactive). Moreover, the GI50 was 61.4 µM (inactive) in the test with SNB-19; > 100 µM (inactive) in the test on ACHN; 38.1 µM (inactive) in the test with SR; > 100 µM (inactive) in the test on NCI-H226; 25.4 µM (inactive) in the test with M19-MEL; 65.9 µM (inactive) with M14. The GI50 was 82.4 µM (inactive) in the test on SF-539, 58.5 µM (inactive) in the test with Malme-3M, 26.2 µM (inactive) in the test with SNB-75 and > 100 µM (inactive) with MOLT-4.

On to `CCCCCCCCCCCC(=O)OCCOCCOCCOCCOCCOCc1ccccc1`, for which the GI50 in the test on SN12C, in the test with SK-MEL-28, with A498, with DMS-114, in the test with LOX IMVI and with OVCAR-8 was > 100 µM (inactive) each time. Besides, the GI50 in the test on SNB-19, in the test on ACHN, with SR, in the test with OVCAR-4, in the test with NCI-H226 and in the test with M19-MEL was > 100 µM (inactive) each time. In addition, the GI50 in the test with M14, with Malme-3M, in the test on CAKI-1, in the test on SNB-75 and in the test on MOLT-4 was > 100 µM (inactive) throughout.

As for `C=CCc1ccc(Oc2cc(CC=C)c3c(c2O)O[C@@H](CO)[C@H]3c2ccc(O)c(-c3cc(CC=C)ccc3O)c2)cc1`, the GI50 in the test with SN12C was 41.9 µM (inactive); in the test on SK-MEL-28, 25.8 µM (inactive); in the test with A498, 80 µM (inactive); in the test with DMS-114 it was 22.5 µM (inactive); in the test on LOX IMVI it was 16.5 µM (inactive); with OVCAR-8, 41.7 µM (inactive). The GI50 in the test with SNB-19 is 39.5 µM (inactive); in the test on ACHN it was 67 µM (inactive); with SR, 12.4 µM (inactive); in the test with OVCAR-4, 54.7 µM (inactive); in the test with NCI-H226 it was 67.1 µM (inactive); in the test with M19-MEL it was 42.2 µM (inactive). The GI50 in the test on M14 was 47.6 µM (inactive); in the test with SF-539, 40.9 µM (inactive); with Malme-3M, > 100 µM (inactive); in the test with CAKI-1, > 100 µM (inactive); in the test on SNB-75, > 100 µM (inactive).

Values taken from ChEMBL document CHEMBL1201862, “PubChem BioAssay data set” (2004).
